Assay results taken from the NIST ThermoML archive (doi:10.1021/acs.jced.5b01044).
± gives the expanded uncertainty stated by the source.

Settings: Liquid, Ebulliometric method (Recirculating still)

With `OCCO` [1,2-ethanediol] the “vapor or sublimation pressure” value (470.22 K) was 101.3 ± 0.5 kPa.
In the case of `Cc1ccc(C)cc1` [1,4-dimethylbenzene], the “vapor or sublimation pressure” value (411.21 K) is reported as 101.3 ± 0.5 kPa.
In the case of `CC(C)(CO)CO` [2,2-dimethyl-1,3-propanediol], the “vapor or sublimation pressure” value (478.95 K) is reported as 101.3 ± 0.5 kPa.
